Source: patent US10093675B2, “6,8-disubstituted-9-(heterocyclyl)purines, compositions containing these derivatives and their use in cosmetic and medicinal applications” (USTAV EXPERIMENTALNI BOTANIKY AV CR, V.V.I., priority 2014, dated 2018)

Assays:
[1] = tested on: human diploid fibroblasts (HDF cells; HDF25, HDF45, HDF80); test: Inhibition of human cell aging: senescent cells by beta-galactosidase staining; assay type: cell-based
In short: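 Cells of passages 25, 45 and 80 fixed 5 min at room temperature in 2% formaldehyde/0.2% glutaraldehyde in PBS, then incubated at 37° C with beta-galactosidase substrate. Senescent cells identified by blue staining.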

C. elegans fem-1(hc17) = test: Lifespan of C. elegans; assay type: in vivo; settings: 100 microM, treated from 4th day of adulthood; DMSO vehiculum 12.98
From the text: C. elegans is a standard model of aging. Its relevance for human aging is generally accepted based primarily on molecular similarity in aging mechanisms and evolutionary conservation of several pathways related to health- and life-span including insulin/IGF-I signaling. (Olsen et. al 2006, doi: 10.1196/annals.1354.015) It is used for drug screening campaigns (reviewed e.g. in Kaletta et al. 2006, doi: 10.1038/nrd2031) including those searching for compounds with cytoprotective activity. Compounds with a life-span extending effect in C. elegans and known health benefits in human include resveratrol, ECG and curcumin (Liao et, al 2011, doi: 10.1016/j.mad.2011.07.008; Wood et al. 2004, doi: 10.1038/nature02789; Abbas et al. 2009, doi: 10.1055/s-0028-1088378). The strain used in this experiment was fem-1(hc17). When grown at 25° C. all animals develop into females which prevents further reproduction and contamination of experiment with progeny. Age-synchronized adults (obtained by sodium hypochlorite treatment) were maintained in liquid S-complete medium. […] Living worms (i.e those moving when exposed to intensive light) were counted in a microscope every 2-3 days until the worms reached 22nd day of adulthood. The effects of the compounds on worm life-span were evaluated in software OASIS (Yang et al 2011, doi: 10.1371/journal.pone.002352).

[2] = tested on: detached leaves of Triticum aestivum cv. Hereward; test: Membrane lipid peroxidation (MDA, TBA method) in detached wheat leaves during dark senescence; assay type: in vivo; settings: four days in the dark, Control 18.9 (±2.2)
Description: A typical symptom associated with senescence as a direct consequence of increased reactive oxygen species is lipid peroxidation. Therefore the levels of MDA, a decomposition product of lipid peroxidation, were measured in detached wheat leaves that were exposed to the prepared novel derivatives and kinetin for four days in the dark as described in Example 8. MDA levels were measured using a thiobarbituric acid (TBA) method. In detail, 100 mg of fresh plant material was homogenized by high speed shaking in a ball mill (MM301, Retsch, Germany) with 1 mL of 80% methanol. The crude extract was centrifuged at 10,000×g for 5 min, and 100 μL aliquot of supernatant was vortexed with 100 μL of 0.5% (w/v) TBA containing 0.1% (w/v) trichloroacetic acid, and the resulting solution was then incubated for 30 min at 95° C. The samples were quickly cooled on ice and recentrifuged for 5 min at 1000×g. The absorbance of supernatant was measured at 532 nm with background subtraction at 600 nm and the amount of MDA-TBA complex was calculated from the coefficient of absorbance 155 mM^−1cm^−1.
Seeds of winter wheat, Triticum aestivum cv. Hereward, were washed under running water for 24 hours and then sown on vermiculite soaked with Knop's solution. They were placed in the grown chamber at 25° C. with a 16/8 hours light period at […]. After 7 days, the first leaf was fully developed and the second leaf had started to grow. A tip section of the first leaf, approximately 35 mm long, was removed from 5 seedlings and trimmed slightly to a combined weight of 100 mg. The basal ends of the five leaf tips were placed in the wells of a microtiter polystyrene plate containing […] of a cytokinin solution each. The entire plate was inserted into a plastic box lined with paper tissues soaked in distilled water to prevent leaf sections from drying out. After 96 hours incubation in the dark at 25° C., the leaves were removed and chlorophyll extracted by heating at 80 C for 10 min in 5 ml of 80% ethanol (v/v). The sample volume was then restored to 5 ml by the addition of 80% ethanol (v/v). The absorbance of the extract was recorded at 665 nm. In addition, chlorophyll extracts from fresh leaves and leaf tips incubated in deionized water were measured. From the obtained data, the concentration with highest activity was selected for each compound tested. Relative activity of the compound at this concentration was calculated (see Table 6 below). The activity obtained for 10^−4 M kinetin (Kin) was set as 100%. The values shown are means of five replicates and the whole experiment was repeated twice.

[3] = Radical scavenging activity determined by ORAC (Oxygen Radical Absorbance Capacity); assay type: biochemical; settings: Mean ± SD (n = 3); net area under the curve relative to trolox, equimolar basis
Description: The ability of compounds to scavenge free radicals in vitro was determined by Oxygen Radical Absorbance Capacity (ORAC) method. Fluorescein (100 μL, […]) and 25 μL of compound solution were added into each working well in a 96-well microplate preincubated at 37° C. Thereafter, 25 μL of 250 mM AAPH was quickly added, microplate was shaken for 5 s and the fluorescence (Ex. 485 nm, Em. 510 nm) was read every 3 min over 90 min by using microplate reader Infinite 200 (TECAN, Switzerland). The net area under the curve was used to express antioxidant activity relative to trolox which was used as a standard.

Compound	SENESCENT CELLS (%) HDF25 ([1]; human diploid fibroblasts passage 25, beta-galactosidase staining)	SENESCENT CELLS (%) HDF45 ([1]; human diploid fibroblasts passage 45, beta-galactosidase staining)	SENESCENT CELLS (%) HDF80 ([1]; human diploid fibroblasts passage 80, beta-galactosidase staining)	restricted mean of life-span (C. elegans fem-1(hc17))	MDA (nmol/g FW) [2]	ORAC (compound/trolox ratio) [3]
c1ccc(CNc2ncnc3nc[nH]c23)cc1 [6-benzylaminopurine, reference compound]	5%	9%	45%	12.95	–	–
OCCNc1nc2c(NCc3ccco3)ncnc2n1C1CCCCO1 (stereo not drawn) [Compound 181, 6-Furfurylamino-8-(2-hydroxyethylamino)-9-(tetrahydropyran-2-yl)-9H-purine]	–	–	–	–	9.5 (±0.5) nmol/g FW	78.1 ± 3.9
NCCNc1nc2c(NCc3ccco3)ncnc2n1C1CCCCO1 (stereo not drawn) [Compound 170, 8-(2-Aminoethylamino)-6-furfurylamino-9-(tetrahydropyran-2-yl)-9H-purine]	–	–	–	–	10.4 (±0.7) nmol/g FW	181.3 ± 5.2
Ic1nc2c(NCc3ccccc3)ncnc2n1C1CCCCO1 (stereo not drawn) [Compound 46, 8-Iodo-6-benzylamino-9-(tetrahydropyran-2-yl)-9H-purine]	–	–	–	–	10.9 (±1.0) nmol/g FW	1.4 ± 0.0
CC(C)=CCNc1nc(Cl)nc2c1nc(N)n2C1CCCCO1 (stereo not drawn) [Compound 107, 8-Amino-6-(3-methylbut-2-en-1-ylamino)-chloro-9-(tetrahydropyran-2-yl)-9H-purine]	–	–	–	–	10.5 (±0.5) nmol/g FW	24.4 ± 1.5
